Data taken from patent US20240350485A1 (TARIS Biomedical LLC, priority 2021, published 2024).

Tests used:
[1] = rat, in vivo
Source text: (§3) Rat bladders (5 groups of rats, n=3/group) were surgically catheterized under anesthesia and the catheter was externalized, tunneled subcutaneously, and connected to a vascular access harness (VAH) in the neck. […] Plasma and bladder samples were collected at all time points.

in vivo = details: female, Sprague-Dawley, rat
Source text: as §3

[2] = In vitro protein binding in human urine; format: in vitro ADME
Procedure: (§1) Albuminuria/proteinuria had minimal effect on % free form in urine.
(§2) At the end of 6-hours post-dialysis incubation, drug was analyzed and the recovery was calculated against the spiked concentrations.

in vitro [3] = details: minipig, bladder tissue
[4] = Solubility as a function of pH; format: physicochemical; details: normal urine pH range of 5.5 to 7
Stability in rat urine = format: in vitro ADME; details: freshly collected rat urine, 37° C.
Procedure: as §2

Stability in human urine = format: in vitro ADME; details: freshly collected human urine, 37° C.
Procedure: as §2

in vitro [5] = details: rat, bladder tissue
[6] = In vitro protein binding in minipig urine; format: in vitro ADME
Procedure: as §1, §2

[7] = test system: orthotopic RT-112 bladder tumor; test: Continuous bladder perfusion, RT-112 implanted into the bladder wall
Source text: Perfusion studies: The experimental study design was the same as described in Example 11 (FIG. 12), except that the perfusions were continued until the time of necropsy on Day 14.

[8] = In vitro release of prototype permeation systems in simulated urine (Table 5); format: physicochemical; details: simulated urine at various pHs
in vitro [9] = details: human, bladder tissue
ERK1/2 phosphorylation = test: pERK/ERK in orthotopic bladder UM-UC-1 tumors by capillary immunoblotting; format: in vivo, nude rats
Source text: The signals for pERK1/2 were divided by the total ERK1/2 signal in the same sample and the mean of the pERK1/2 values for the corresponding vehicle-treated samples was set at a relative value of 1. At each timepoint, the pERK/ERK ratio for each tumor sample was divided by the mean pERK/ERK ratio derived from the corresponding control samples. There was 1 exception, as there were no vehicle-treated samples at the 120-hour timepoint, the pERK/ERK ratios for the erdafitinib-treated samples at the 120-hour timepoint were divided by the mean of the 48-hour vehicle-treated group.

[10] = Stability in minipig urine; format: in vitro ADME; details: freshly collected minipig urine, 37° C.
Procedure: as §2

[11] = rats dosed orally, 2 and 7 hours
Procedure: Extracellular signal-regulated kinase (ERK)1/2 phosphorylation was assessed as a PD marker for FGFR kinase inhibition in tumors at various time points post administration/installation.

in vitro [12] = details: bladder tumor tissue
[13] = In vitro release (IVR) of permeation prototypes in simulated urine; format: physicochemical; details: highest release rates at pH 5, significantly reduced at pH 8
Procedure: The drug formats evaluated included erdafitinib free base, erdafitinib free base plus HP-β-CD and erdafitinib salts, e.g. HCl salt.
The pH range for normal human urine is in the 5.5 to 7 range, but some disease states can result in higher urine pH values (pH 8). […] The base material for this tubing could be either AR-75A-B20 or AC-4075A-B20.
Drug and device constituents are described in Tables 11 and 12, respectively. In vitro release (IVR) testing was performed with both prototypes, using simulated urine at 3 different pH ranges as the release media: pH 5, 6.8, and 8 (n=3 systems tested in each media).

[14] = test system: orthotopic UM-UC-1 bladder tumors; test: Continuous bladder perfusion, orthotopic UM-UC-1 bladder cancer model
Procedure: Perfusion studies: The bladders of the study animals were cannulated on Day 1 and the animals were allowed to recover for 3 days. On Day 5, UM-UC-1 cells (2×10^6 cells) were injected into the lateral wall of each bladder. […] Based on the in vitro results, target urine concentrations of 0.5, 1.0, and 5.0 μg/mL were used in the perfusion experiments. Body weight, daily urine production, and daily water consumption were recorded. At necropsy, a plasma sample, bladder photographs, and bladder weight measurements were recorded.
The percent reduction in relative tumor weight between the control group and the drug perfusion groups was determined as an initial measure of efficacy. Bladder tissue and tumor samples were also submitted for analysis of FGFR signaling activity by determining the phosphorylated fibroblast growth factor receptor substrate (FRS)2a levels and the pERK to ERK ratio.

[15] = In vitro protein binding in rat urine; format: in vitro ADME
Procedure: as §1, §2

[16] = In vitro permeation screening of device materials; format: physicochemical; parameters: key: “O” is permeable (suitable for the stripe material); “A” is practically impermeable; “X” is impermeable (suitable for a base material, i.e., the non-stripe portion of a system body)
Procedure: A number of polymeric materials were tested to determine their suitability as a material of construction of an elastic system body for release of various erdafitinib formulations in a permeation-controlled release system. The materials included silicone, several thermoplastic polyurethane (TPUs) manufactured by Lubrizol Life Science (Bethlehem, PA).
In general, materials that are impermeable to erdafitinib, the API, are suitable for use as the base material in permeation systems. Materials that are permeable to the API are suitable for use as the stripe material in permeation systems. Platinum cured silicone, thermoplastic polyurethanes (TPUs), and ethylene vinyl acetate (EVA) materials were screened (Table 10). The test articles were filled with formulated API (powder or tablets), sealed, placed in foil pouches, and gamma irradiated (nominal 35 kGy). The systems were placed into simulated urine (pH 6.8), stored at 37° C., and sampled periodically. The amount of API in each sample was determined by high-performance liquid chromatography (HPLC) analysis.

[17] = urine
Source text: On Day −7 a catheter was surgically placed in the bladder of each animal. The distal end of the catheter was anchored to a subcutaneous site and attached to a vascular access port (VAP). The port was secured and the animals were allowed to recover. Each animal was subsequently fitted with a portable infusion pump that was attached to the bladder catheter via the VAP. […] All excreted urine was collected in 24-hour intervals through Day 6 or 8. Blood samples were collected daily on study Days 1 to 8. Bladder tissue samples were collected from each animal at necropsy.

C96 h [1]: BQL
C120 h [1]: BQL
concentration at 96 h (in vivo; C96 h): 56.9 ng/mL
concentration at 120 h (in vivo; C120 h): 10.7 ng/mL
Percent erdafitinib free in urine [2]: 95%
fraction unbound (in vitro [3]): 0.79
solubility [4]: significant pH-dependent solubility
stability in urine (Stability in rat urine; 6 hours): sufficiently stable
recovery at 6 h (Stability in rat urine; rat urine spiked at 1, 3, and 5 μg/mL): 90 to 95%
stability in urine (Stability in human urine; 6 hours): sufficiently stable
recovery at 6 h (Stability in human urine; human urine spiked at 1, 3, and 5 μg/mL): 89 to 98%
fraction unbound (in vitro [5]): 0.33
Percent erdafitinib free in urine [6]: 97%
Observations (release profile) ([8]; device AR-62A base with HP-60D-35 stripe): Release profile shows more pH
Observations (release profile) ([8]; device EG-80A base with HP-60D-35 stripe): Release profile shows more pH
fraction unbound (in vitro [9]): 0.39
stability in urine ([10]; 6 hours): sufficiently stable
recovery at 6 h ([10]; minipig urine spiked at 1, 3, and 5 μg/mL): 92 to 93%
exposure levels in s.c. tumors lower than in orthotopic tumors [11]: Roughly 2 fold
fraction unbound (in vitro [12]): 0.4
pH dependency of release by drug format [13]: significant pH dependency
Percent erdafitinib free in urine [15]: 84%
In Vitro Permeation ([16]; material EVA (CoTran 9712)): Δ
In Vitro Permeation ([16]; material Silicone (MED-4750)): X
In Vitro Permeation ([16]; material TPU (AC-4075A)): X
In Vitro Permeation ([16]; material TPU (AR-62A)): X
In Vitro Permeation ([16]; material TPU (EG-80A)): Δ
In Vitro Permeation ([16]; material TPU (HP-60D-35)): ◯
In Vitro Permeation ([16]; material TPU (HP-93A-100)): ◯
In Vitro Permeation ([16]; material TPU (PC-3575A)): X
In Vitro Permeation ([16]; material TPU (TT-1074A)): X
Daily erdafitinib recoveries, of average daily amount administered [17]: 15.7%
Compound: COc1cc(OC)cc(N(CCNC(C)C)c2ccc3ncc(-c4cnn(C)c4)nc3c2)c1 [Erdafitinib, N-(3,5-dimethoxyphenyl)-N′-(1-methylethyl)-N-[3-(1-methyl-1H-pyrazol-4-yl)quinoxalin-6-yl]ethane-1,2-diamine]
bladder weight vs vehicle control ([7]; 1.0 μg/mL perfusate concentration): significant bladder weight reduction
bladder weight decrease vs vehicle control ([7]; 0.25 and 0.5 μg/mL dose groups): not statistically significant
percentage change in body weight vs vehicle control ([7]; 0.5, 1.0, and 5.0 μg/mL treatment groups, except Group 4 on Day 11): Statistically non-significant difference
body weight loss, maximum mean values ([7]; erdafitinib-treated group, Day 11): up to −3%
ERK1/2 phosphorylation in UM-UC-1 tumors (ERK1/2 phosphorylation; 6 mg/kg intravesical and 20 mg/kg oral doses, 2 hours post dosing): statistically significant decrease
pERK/ERK (ERK1/2 phosphorylation; 2 hours post dose, IVES, 6 mg/kg, relative to vehicle group): 0.62
pERK/ERK (ERK1/2 phosphorylation; 2 hours post dose, p.o., 20 mg/kg, relative to vehicle group): 0.52
pERK/ERK (ERK1/2 phosphorylation; 7 hours post dose, IVES, 6 mg/kg, relative to vehicle group): 0.60
pERK/ERK (ERK1/2 phosphorylation; 7 hours post dose, p.o., 20 mg/kg, relative to vehicle group): 0.61
pERK/ERK (ERK1/2 phosphorylation; 48 hours post dose, IVES, 6 mg/kg, relative to vehicle group): 0.71
pERK/ERK (ERK1/2 phosphorylation; 48 hours post dose, p.o., 20 mg/kg, relative to vehicle group): 0.76
pERK/ERK (ERK1/2 phosphorylation; 120 hours post dose, IVES, 6 mg/kg, relative to 48-hour vehicle group): 0.98
pERK/ERK (ERK1/2 phosphorylation; 120 hours post dose, p.o., 20 mg/kg, relative to 48-hour vehicle group): 1.22
percentage change in body weight vs vehicle control ([14]; 0.5, 1.0, and 5.0 μg/mL treatment groups): Statistically non-significant difference
bladder weight vs vehicle control ([14]; 0.5, 1.0 and 5 μg/mL nominal urine concentrations): significant dose-related decrease
cage side observations ([14]; all treatment groups): no visible signs of abnormal behavior or clinical symptoms
